System: myrosinase (bglA, 6-phospho-β-glucosidase, GH1)
Test: initial rates, Lineweaver-Burk plot
Type: biochemical, Bacillus sp. NGB-B10
Settings: 0.05 M phosphate buffer pH 7.0; 1-20 mM sinigrin; partially purified enzyme

- Km: 2500 µM
Structure (SMILES): C=CC/C(=N/OS(=O)(=O)O)S[C@@H]1O[C@H](CO)[C@@H](O)[C@H](O)[C@H]1O [sinigrin]

Source: PMC9440883, “A new source of bacterial myrosinase isolated from endophytic Bacillus sp. NGB-B10, and its relevance in biological control activity” (World Journal of Microbiology & Biotechnology, 2022)
